Reference: ChEMBL document CHEMBL1201862, “PubChem BioAssay data set” (2004)
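Compound exposure: 48 hours, 5 concentrations, 96-well plates. GI50 is the concentration that inhibits growth by half.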 The source made the active and inactive calls. No stated cut-off is given here; in the data, active = GI50 up to about 1.1 µM and inactive = higher.

Assays:
Assay in all cases: DTP human tumour cell line panel, 48 h
[1] = system: A549
[2] = system: ACHN
[3] = system: CAKI-1
[4] = system: HOP-62
[5] = system: KM12
[6] = system: M14
[7] = system: MDA-MB-435
[8] = system: NCI-H226
[9] = system: NCI-H460
[10] = system: OVCAR-3
[11] = system: RXF 393
[12] = system: SF-295
[13] = system: SK-MEL-5
[14] = system: SK-OV-3
[15] = system: SNB-75
[16] = system: SW-620
[17] = system: UACC-257
[18] = system: NCI-H522
[19] = system: RPMI-8226
[20] = system: SF-268

Measured: GI50

CC1CCC2C(C)(C)CC3(C)CCC1C23O (stereo unspecified)
inactive: [1] 16.3 µM | [2] 16.1 µM | [3] 14.2 µM | [4] 16.4 µM | [5] 15.5 µM | [6] 16 µM | [7] 15.6 µM | [8] 15.3 µM | [9] 17 µM | [10] 16.3 µM | [11] 17 µM | [12] 12.7 µM | [13] 14.6 µM | [14] 29 µM | [15] 18.8 µM | [16] 16 µM | [17] 16.2 µM

CCOC1C(Br)Cn2c(=O)c3cc4ccccc4cc3c(=O)n2C1C (stereo unspecified)
inactive: [1] 67.3 µM | [2] > 100 µM | [3] 55.1 µM | [4] > 100 µM | [5] > 100 µM | [6] 42.5 µM | [8] > 100 µM | [9] 40.3 µM | [18] 1.67 µM | [10] > 100 µM | [19] 33.8 µM | [11] > 100 µM | [20] > 100 µM | [12] 71.8 µM | [13] 31.1 µM | [14] > 100 µM | [15] 39.4 µM | [16] 91.8 µM | [17] 60.4 µM

COc1ccc(/C=N/NS(=O)(=O)c2ccc(/C=C3\NC(=O)NC3=O)cc2)cc1
inactive: [1] > 100 µM | [2] > 100 µM | [3] > 100 µM | [4] > 100 µM | [5] > 100 µM | [6] > 100 µM | [7] > 100 µM | [8] > 100 µM | [9] > 100 µM | [10] > 100 µM | [19] > 100 µM | [11] > 100 µM | [20] 28.1 µM | [12] 89.5 µM | [13] > 100 µM | [14] 73.5 µM | [15] 23.9 µM | [16] > 100 µM | [17] > 100 µM

CC(=O)OCC(OC(C)=O)C(OC(C)=O)C(OC(C)=O)C(=O)CNn1c(-c2ccccc2)nc2ccc(Br)cc2c1=O (stereo unspecified)
inactive: [1] > 100 µM | [2] > 100 µM | [3] 87.5 µM | [4] > 100 µM | [5] > 100 µM | [6] > 100 µM | [8] > 100 µM | [9] > 100 µM | [18] 46.8 µM | [10] > 100 µM | [19] 64.9 µM | [11] > 100 µM | [20] > 100 µM | [12] > 100 µM | [13] > 100 µM | [14] > 100 µM | [15] > 100 µM | [16] > 100 µM | [17] > 100 µM

COC(=O)c1c2c(c(-c3ccccc3)c3c1-c1nc(Cl)ccc1CC3)CCc1ccc(Cl)nc1-2
inactive: [1] > 100 µM | [2] > 100 µM | [3] > 100 µM | [4] > 100 µM | [5] > 100 µM | [6] > 100 µM | [8] 52.6 µM | [9] 70.6 µM | [18] 77.1 µM | [10] > 100 µM | [19] > 100 µM | [11] 47.5 µM | [20] 78.5 µM | [12] 44.6 µM | [13] > 100 µM | [14] > 100 µM | [15] 32.3 µM | [16] > 100 µM | [17] > 100 µM

N#CCN1CCCCCc2ccccc21
inactive: [1] > 100 µM | [2] > 100 µM | [4] > 100 µM | [5] > 100 µM | [6] > 100 µM | [7] > 100 µM | [8] > 100 µM | [9] > 100 µM | [19] > 100 µM | [11] > 100 µM | [20] > 100 µM | [12] 53.5 µM | [13] > 100 µM | [14] > 100 µM | [15] > 100 µM | [16] > 100 µM | [17] > 100 µM

O=C(NCCCCCCCCCCCCNC(=O)c1cnc2ccccc2n1)c1cnc2ccccc2n1
inactive: [1] 92.5 µM | [2] 44.3 µM | [3] > 100 µM | [4] 20.6 µM | [5] > 100 µM | [6] > 100 µM | [8] 48 µM | [9] 48.1 µM | [18] 19 µM | [10] 34.7 µM | [19] 23.4 µM | [11] 31.3 µM | [20] > 100 µM | [12] 37 µM | [13] 9.59 µM | [14] 22.6 µM | [15] 20.8 µM | [16] > 100 µM | [17] 47.8 µM

CNC(=O)OCC1=C(COC(=O)NC)C(C)N(c2ccc(OC)cc2)C1 (stereo unspecified)
inactive: [1] > 100 µM | [2] 62.2 µM | [4] 40.3 µM | [5] > 100 µM | [6] 69.5 µM | [7] > 100 µM | [8] 1.18 µM | [9] 23 µM | [10] 43 µM | [19] 58.6 µM | [11] 54.6 µM | [20] > 100 µM | [12] 88.9 µM | [13] > 100 µM | [14] > 100 µM | [15] 29.4 µM | [16] > 100 µM | [17] 36.7 µM

COc1cc2cc3c4c(cc(OC)c(OC)c4c2cc1OC)CCN3C(=O)OCCN1CCNCC1
inactive: [1] 18.5 µM | [2] 15.1 µM | [3] 15 µM | [4] 17.1 µM | [5] 15.1 µM | [6] 14.7 µM | [8] 14.4 µM | [9] 13.5 µM | [18] 16.6 µM | [10] 15.3 µM | [19] 14.1 µM | [11] 14.4 µM | [20] 11.1 µM | [12] 15 µM | [13] 14.3 µM | [14] 17.9 µM | [15] 11.9 µM | [16] 14.9 µM | [17] 14.9 µM

C[C@@H]1C(=O)O[C@@H]2C[C@@]1(C)[C@@H]1C(=O)C3(O)OC14C2(C)OC(=O)[C@@]4(O)CCC1C3C(O)C=C2CC=CC(=O)[C@@]21C (stereo partly specified)
inactive: [1] 40.8 µM | [2] 53.6 µM | [3] 21.3 µM | [4] 63.5 µM | [5] 26.6 µM | [6] 21.6 µM | [7] 20.4 µM | [9] 29.9 µM | [19] 19.7 µM | [11] 13.8 µM | [20] 26.7 µM | [12] 33.3 µM | [13] 33 µM | [14] 47 µM | [15] 15.7 µM | [16] 40.2 µM | [17] 31 µM

O=C1CCCCC/C1=C\c1cccc([N+](=O)[O-])c1
inactive: [1] 44.6 µM | [2] 33.3 µM | [3] 36.1 µM | [4] 38.9 µM | [5] 25 µM | [6] 26.5 µM | [7] 32.7 µM | [9] 30.1 µM | [10] 28.8 µM | [19] 21.6 µM | [11] 28.7 µM | [20] 18.5 µM | [12] 23.2 µM | [13] 18.4 µM | [14] 79.1 µM | [15] 38.2 µM | [16] 34.5 µM | [17] 22.4 µM
